# Data taken from publication PMC12836451, “Cyclic Peptide–Polymer Conjugate Nanotubes for Delivery of SN‐38 in Treatment of Colorectal Cancer Model” (Advanced Healthcare Materials, 2025).
# Counter-ions that a name gives are not always drawn. Like-named read-outs stand apart in the source and are kept apart here.
# Legend:
# [1] = Pharmacokinetics study in mice (plasma, LC-MS, non-compartmental); conditions: non-tumor female BALB/c mice, i.v., irinotecan 15 mg kg−1 or SN-38 nanotubes 10 mg kg−1 drug, SN-38 = prodrug and hydrolysed forms combined
# [2] = cited from earlier work
# Source text: Despite significant scientific advances in recent decades, cancer remains one of the most formidable challenges for modern medicine. The rising rates of colorectal cancer (CRC) diagnoses, particularly amongst younger people, exemplify the new complexities faced. Despite efforts to promote early detection and fast onset of treatment, the prognosis for CRC remains grim, ranking as one of the deadliest malignancies worldwide.
# [3] = system: CT26 spheroids; assay: 3D spheroid growth assay; type: cell-based, murine; conditions: 10 µM, control grew by over 300 µm
# Description: CT26 cells were harvested and seeded in a non‐tissue culture‐treated, U‐bottom‐shaped 96‐well plates at a density of 500 cells per well (200 µL media per well), before centrifugation at 500 xG for 10 minutes. The plate incubated and the spheroids allowed to form over a period of days (typically 5–8). […] Non‐treated/Control spheroids received fresh media.
# [4] = system: CT26 cells; assay: MTS cell viability assay; type: cell-based, murine; conditions: Mus musculus, CT26, 48 h
# Description: Cells were typically grown to 70–80% confluence before passaging, and cells were not used past 20 passages total.
# The wells were then treated with 20 µL of MTS reagent (Promega, CellTiter 96 AQeuous One Solution Cell Proliferation Assay) for 4 h, before UV absorbance reading on Biotek Cytation 3 Plate reader (490 nm). The relative cell viability was determined by comparison to untreated cells or cells with DMSO or EtOH at a range of concentrations.
# [5] = system: CT26 xenograft; conditions: CT26 xenograft mice, three i.v. doses
Compound,C max [1],reduction of potency compared to SN-38 [2],increase of spheroid diameter over 5 days [3],"IC50 ([4]; n = 3, read-out: concentration required to achieve more than 50% cell death)","tolerability (body weight, welfare scoring) [5]",aqueous solubility ([2]; reason for not testing in vivo),"IC50 ([4]; concentrations are SN-38 concentration, n = 3, read-out: IC50)"
"CCc1c2c(nc3ccc(OC(=O)N4CCC(N5CCCCC5)CC4)cc13)-c1cc3c(c(=O)n1C2)COC(=O)[C@]3(O)CC [Irinotecan, irinotecan hydrochloride]",29.6 µM,100–1000 fold,40 µm,> 10000 nM,well tolerated,–,–
"CCc1c2c(nc3ccc(O)cc13)-c1cc3c(c(=O)n1C2)COC(=O)[C@]3(O)CC [SN-38, 7‐ethyl‐10‐hydroxycamptothecin]",–,–,–,–,–,poor aqueous solubility,~200 nM
